Measured values as given in PMC12590356, “Novel pyrrolo[2,1-a]isoquinoline aryl ketones attenuate carbon nanotube-induced acute lung injury through NF-κB pathway inhibition” (RSC Advances, 2025).
Read-outs that look alike come from different tables or passages of the source.

Legend:
[1] = CCK8 cell viability (cytotoxicity) assay; assay type: cell-based, murine; conditions: mouse, RAW264.7 cells, means ± SD (n = 3)
Protocol: The toxic effect of synthesized compounds was evaluated on RAW264.7 cells utilizing a CCK8 assay kit.
RAW264.7 cells were seeded in 96-well plates and incubated with various compounds, each at a uniform concentration of 50 μM, for 24 h. Following this incubation, CCK8 was added to the 96-well plates and incubated at 37 °C for 1 h. The control group was cultivated solely in fresh medium. The absorbance at 450 nm was quantified using an enzyme marker.

[2] = system: LPS-induced NO production in RAW 264.7 cells; test: LPS-induced NO production (Griess reagent); assay type: cell-based, murine; design: NO inhibition rate: dose or concentration left out as unconfirmed; key to Inhibition of LPS-induced NO production, result in words (na / tox): na: no activity at the concentration of 40 μM; toxicity; conditions: for NO inhibition rate / IC50: Griess reagent, means ± SD (n = 3); for IC50: Mus musculus, RAW264.7, LPS 500 ng/mL 24 h, read-out: IC50, inhibition of LPS-induced NO production; for Inhibition of LPS-induced NO production, result in words (na / tox): na at 40 μM
Protocol: Despite extensive research efforts focused on the treatment ALI, no specific drugs have been identified thus far. In the quest to discover innovative anti-inflammatory drugs for ALI treatment, we assessed the anti-inflammatory potential of pyrrolo[2,1-a]isoquinoline aryl ketones were evaluated through their capacity to suppress LPS-induced NO release in RAW264.7 cells.[21,28] Griess reagent was used to quantify the levels of LPS-induced NO release in RAW264.7 cells following treatment with the synthesized compounds.
The quantification of NO production in activated RAW264.7 cells was achieved by measuring the concentration of nitrite, which serves as a stable oxidative metabolite of NO, employing a previously established protocol.[37] RAW264.7 cells were cultured overnight in 48-well plates at a cellular density of 5 × 10^4 cells per milliliter. […] Briefly, Griess reagents I and II were mixed with 50 μL of the culture medium supernatant, and the resultant mixture was analyzed spectrophotometrically at a wavelength of 540 nm using an automated microplate reader. The NO inhibition rate was calculated using the following formula: NO inhibition rate = [(OD540 − compound OD540)/(OD540 − blank OD540)] × 100%.

COX-2 = conditions: cited from earlier work
PPAR-α = system: PPAR-α; design: method as in PMID 22489042; conditions: cited from earlier work
PPAR-γ = system: PPAR-γ; design: method as in PMID 22489042; conditions: cited from earlier work
PPAR-δ = system: PPAR-δ; design: method as in PMID 22489042; conditions: cited from earlier work
COX-1 = system: COX-1; design: method as in PMID 32358780, PMID 30243628; conditions: cited from earlier work

Compound | viability at 24 h, 50 µM [1] [%] | NO inhibition rate [2] [%] | further results
O=C(c1ccccc1)c1ccc2c3ccccc3ccn12 [3d] | 96.8 ± 6.6 | 48.0 ± 1.3 | 
CC(C)(Oc1ccc(C(=O)c2ccc(Cl)cc2)cc1)C(=O)O [Fenofibric acid] |  |  | IC50 (COX-2; read-out: IC50, COX-2 inhibitory activity): 0.048 µM; EC50 (PPAR-α): […]; EC50 (PPAR-γ): […]; EC50 (PPAR-δ): […]
O=C(c1ccccc1Cl)c1ccc2c3ccccc3ccn12 [3l] | 99.3 ± 8.8 | 38.2 ± 5.1 | 
COC(=O)c1ccc2c3ccccc3ccn12 [3a] | 92.4 ± 6.3 |  | IC50 [2]: 19.9 ± 0.71 µM
O=C(c1cccc(Cl)c1)c1ccc2c3ccccc3ccn12 [3o] | 91.5 ± 8.5 | 39.2 ± 7.1 | 
O=C(c1ccccc1O)c1ccc2c3ccccc3ccn12 [3m] | 46.4 ± 6.5 |  | Inhibition of LPS-induced NO production, result in words (na / tox) [2]: tox
O=C(c1ccc(Cl)cc1)c1ccc2c3ccccc3ccn12 [3h] | 101 ± 3 | 39.6 ± 5.3 | 
Cc1cccc(C(=O)c2ccc3c4ccccc4ccn23)c1 [3n] |  | 46.8 ± 3.1 | 
CC(C(=O)O)c1cccc(C(=O)c2ccccc2)c1 (stereo not shown) [Ketoprofen] |  |  | IC50 (COX-1): 0.002 µM; IC50 (COX-2; read-out: IC50 for COX-2): 0.026 µM
O=C(c1ccc(C(F)(F)F)cc1)c1ccc2c3ccccc3ccn12 [3j] | 89.9 ± 5.6 |  | 
CC(C)(C)OC(=O)c1ccc2c3ccccc3ccn12 [3b] | 95.6 ± 2.9 | 42.0 ± 4.2 | 
COc1ccc(C(=O)c2ccc3c4ccccc4ccn23)cc1 [3e] | 88.7 ± 5.8 |  | 
N#Cc1ccc2c3ccccc3ccn12 [3c] | 97.1 ± 2.6 | 46.9 ± 1.8 | 
O=C(c1ccc(Br)cc1)c1ccc2c3ccccc3ccn12 [3i] | 95.9 ± 7.7 |  | 
O=C(c1ccc2ccccc2c1)c1ccc2c3ccccc3ccn12 [3p] | 93.2 ± 4.7 |  | 
C=C(C)[C@@H]1CC[C@]2(C(=O)O)CC[C@]3(C)[C@H](CC[C@@H]4[C@@]5(C)CC[C@H](O)C(C)(C)[C@@H]5CC[C@]43C)[C@@H]12 [Betulinic acid, reference compound] | 85.8 ± 7.4 |  | IC50 [2]: 11.9 ± 1.3 µM
Cc1ccc(C(=O)c2ccc3c4ccccc4ccn23)cc1 [3f] | 53.6 ± 6.4 |  | Inhibition of LPS-induced NO production, result in words (na / tox) [2]: tox
